#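 The compound was tested at five concentrations on cells cultured in 96-well plates, with a 48-hour exposure period. Here, GI50 denotes the concentration required for 50% inhibition of growth. TGI marks complete inhibition of growth.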
# Legend:
# Test in all cases: DTP human tumour cell line panel, 48 h
# U251 CNS = system: U251 CNS
# LOX IMVI melanoma = system: LOX IMVI melanoma
# SN12C renal = system: SN12C renal
# SF-268 CNS = system: SF-268 CNS
# NCI-H460 lung = system: NCI-H460 lung
# SW-620 colon = system: SW-620 colon
# NCI-H226 lung = system: NCI-H226 lung
# HCT-116 colon = system: HCT-116 colon
# MDA-MB-231 breast = system: MDA-MB-231 breast
# SK-MEL-5 melanoma = system: SK-MEL-5 melanoma
# COLO 205 colon = system: COLO 205 colon
# HL-60(TB) leukemia = system: HL-60(TB) leukemia
# EKVX NSCLC = system: EKVX NSCLC
# RXF 393 renal = system: RXF 393 renal
# K-562 leukemia = system: K-562 leukemia
# TK-10 renal = system: TK-10 renal
# SNB-75 CNS = system: SNB-75 CNS
# MOLT-4 leukemia = system: MOLT-4 leukemia
# NCI/ADR-RES ovarian = system: NCI/ADR-RES ovarian
# MCF7 breast = system: MCF7 breast
# RPMI-8226 leukemia = system: RPMI-8226 leukemia
# BT-549 breast = system: BT-549 breast
# UO-31 renal = system: UO-31 renal
# KM12 colon = system: KM12 colon
# SNB-19 CNS = system: SNB-19 CNS
# HCC-2998 colon = system: HCC-2998 colon
# CCRF-CEM leukemia = system: CCRF-CEM leukemia
# OVCAR-8 ovarian = system: OVCAR-8 ovarian
# DU-145 prostate = system: DU-145 prostate
# ACHN renal = system: ACHN renal
# NCI-H522 lung = system: NCI-H522 lung
# A549 NSCLC = system: A549 NSCLC
# A498 renal = system: A498 renal
# UACC-257 melanoma = system: UACC-257 melanoma
# MDA-MB-435 = system: MDA-MB-435
# HOP-92 NSCLC = system: HOP-92 NSCLC
# HOP-62 NSCLC = system: HOP-62 NSCLC
# SR leukemia = system: SR leukemia
# CAKI-1 renal = system: CAKI-1 renal
# IGROV1 ovarian = system: IGROV1 ovarian
# SK-MEL-28 melanoma = system: SK-MEL-28 melanoma
# OVCAR-5 ovarian = system: OVCAR-5 ovarian
# MALME-3M melanoma = system: MALME-3M melanoma
# SK-OV-3 ovarian = system: SK-OV-3 ovarian
# OVCAR-4 ovarian = system: OVCAR-4 ovarian
# T-47D breast = system: T-47D breast
# SK-MEL-2 melanoma = system: SK-MEL-2 melanoma
# HCT-15 colon = system: HCT-15 colon
# UACC-62 melanoma = system: UACC-62 melanoma
# HT29 colon = system: HT29 colon
# HS 578T breast = system: HS 578T breast
# SF-295 CNS = system: SF-295 CNS
# NCI-H23 lung = system: NCI-H23 lung
# PC-3 prostate = system: PC-3 prostate
# OVCAR-3 ovarian = system: OVCAR-3 ovarian
smiles,measurement,setting,value
COc1cc2c(/C=C3/C(=O)Nc4c3ccc3ccccc43)c(Cl)n(C)c2cc1C,GI50,U251 CNS,1260 nM
same,TGI,U251 CNS,12800 nM
same,GI50,LOX IMVI melanoma,137 nM
same,TGI,LOX IMVI melanoma,13700 nM
same,GI50,SN12C renal,96.2 nM
same,TGI,SN12C renal,3510 nM
same,GI50,SF-268 CNS,< 22.3 nM
same,TGI,SF-268 CNS,18700 nM
same,GI50,NCI-H460 lung,< 18.9 nM
same,TGI,NCI-H460 lung,> 28000 nM
same,GI50,SW-620 colon,1110 nM
same,TGI,SW-620 colon,11800 nM
same,GI50,NCI-H226 lung,1270 nM
same,TGI,NCI-H226 lung,24500 nM
same,GI50,HCT-116 colon,< 44 nM
same,GI50,MDA-MB-231 breast,53.9 nM
same,TGI,MDA-MB-231 breast,882 nM
same,GI50,SK-MEL-5 melanoma,636 nM
same,TGI,SK-MEL-5 melanoma,1300 nM
same,GI50,COLO 205 colon,74.6 nM
same,TGI,COLO 205 colon,180 nM
same,GI50,HL-60(TB) leukemia,59.7 nM
same,TGI,HL-60(TB) leukemia,> 100000 nM
same,GI50,EKVX NSCLC,275 nM
same,TGI,EKVX NSCLC,6290 nM
same,GI50,RXF 393 renal,20.3 nM
same,TGI,RXF 393 renal,2980 nM
same,GI50,K-562 leukemia,194 nM
same,TGI,K-562 leukemia,21500 nM
same,GI50,TK-10 renal,378 nM
same,TGI,TK-10 renal,17300 nM
same,TGI,SNB-75 CNS,905 nM
same,GI50,MOLT-4 leukemia,< 21.6 nM
same,TGI,MOLT-4 leukemia,17300 nM
same,GI50,NCI/ADR-RES ovarian,24.8 nM
same,TGI,NCI/ADR-RES ovarian,62.9 nM
same,GI50,MCF7 breast,< 17.9 nM
same,GI50,RPMI-8226 leukemia,< 20.4 nM
same,GI50,BT-549 breast,< 10 nM
same,GI50,UO-31 renal,< 18.3 nM
same,TGI,UO-31 renal,6170 nM
same,GI50,KM12 colon,< 15.6 nM
same,TGI,KM12 colon,< 30.3 nM
same,GI50,SNB-19 CNS,104 nM
same,TGI,SNB-19 CNS,8450 nM
same,GI50,HCC-2998 colon,< 47 nM
same,GI50,CCRF-CEM leukemia,73.1 nM
same,TGI,CCRF-CEM leukemia,1060 nM
same,GI50,OVCAR-8 ovarian,< 10 nM
same,GI50,DU-145 prostate,235 nM
same,TGI,DU-145 prostate,599 nM
same,GI50,ACHN renal,400 nM
same,TGI,ACHN renal,19500 nM
same,GI50,NCI-H522 lung,< 10 nM
same,TGI,NCI-H522 lung,< 12.6 nM
same,GI50,A549 NSCLC,< 19.3 nM
same,TGI,A549 NSCLC,2010 nM
same,GI50,A498 renal,666 nM
same,TGI,A498 renal,3040 nM
same,GI50,UACC-257 melanoma,< 10 nM
same,TGI,UACC-257 melanoma,29300 nM
same,GI50,MDA-MB-435,< 13.2 nM
same,TGI,MDA-MB-435,< 19.7 nM
same,GI50,HOP-92 NSCLC,705 nM
same,TGI,HOP-92 NSCLC,22400 nM
same,GI50,HOP-62 NSCLC,680 nM
same,TGI,HOP-62 NSCLC,16000 nM
same,GI50,SR leukemia,38.4 nM
same,TGI,SR leukemia,22200 nM
same,GI50,CAKI-1 renal,< 22.4 nM
same,TGI,CAKI-1 renal,12600 nM
same,GI50,IGROV1 ovarian,42.4 nM
same,TGI,IGROV1 ovarian,16100 nM
same,TGI,SK-MEL-28 melanoma,> 47700 nM
same,TGI,OVCAR-5 ovarian,10500 nM
same,GI50,MALME-3M melanoma,156 nM
same,TGI,MALME-3M melanoma,19400 nM
same,GI50,SK-OV-3 ovarian,177 nM
same,TGI,SK-OV-3 ovarian,13000 nM
same,GI50,OVCAR-4 ovarian,1520 nM
same,TGI,OVCAR-4 ovarian,11600 nM
same,GI50,T-47D breast,16900 nM
same,TGI,T-47D breast,> 100000 nM
same,GI50,SK-MEL-2 melanoma,< 14.7 nM
same,TGI,SK-MEL-2 melanoma,10100 nM
same,GI50,HCT-15 colon,899 nM
same,TGI,HCT-15 colon,12600 nM
same,GI50,UACC-62 melanoma,104 nM
same,TGI,UACC-62 melanoma,15400 nM
same,GI50,HT29 colon,< 19.6 nM
same,GI50,HS 578T breast,358 nM
same,TGI,HS 578T breast,1890 nM
same,GI50,SF-295 CNS,< 15.4 nM
same,TGI,SF-295 CNS,< 29.1 nM
same,TGI,NCI-H23 lung,14700 nM
same,GI50,PC-3 prostate,132 nM
same,TGI,PC-3 prostate,3570 nM
same,GI50,OVCAR-3 ovarian,< 26.3 nM

# — PubChem BioAssay (NCI)
